Series [1] deals with T1, Thioredoxin Reductase (gTrxR) (Giardia duodenalis, UniProt E2RU27).
T1 sequence (E2RU27 1-314): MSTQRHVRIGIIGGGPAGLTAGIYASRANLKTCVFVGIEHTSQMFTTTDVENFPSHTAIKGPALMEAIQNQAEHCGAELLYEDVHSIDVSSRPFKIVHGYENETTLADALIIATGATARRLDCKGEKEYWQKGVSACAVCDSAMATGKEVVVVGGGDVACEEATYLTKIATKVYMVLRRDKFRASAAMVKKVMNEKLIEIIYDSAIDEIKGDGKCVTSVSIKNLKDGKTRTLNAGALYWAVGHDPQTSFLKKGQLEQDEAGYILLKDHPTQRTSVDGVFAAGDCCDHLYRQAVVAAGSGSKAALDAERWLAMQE
In words: intrinsic protein fluorescence quenching. It counts as binding.

For series [2], the target named is T2, Elongation Factor 1Bγ (gEF1Bγ) (Giardia duodenalis, UniProt A8BFR0).
T2 sequence (A8BFR0 1-402): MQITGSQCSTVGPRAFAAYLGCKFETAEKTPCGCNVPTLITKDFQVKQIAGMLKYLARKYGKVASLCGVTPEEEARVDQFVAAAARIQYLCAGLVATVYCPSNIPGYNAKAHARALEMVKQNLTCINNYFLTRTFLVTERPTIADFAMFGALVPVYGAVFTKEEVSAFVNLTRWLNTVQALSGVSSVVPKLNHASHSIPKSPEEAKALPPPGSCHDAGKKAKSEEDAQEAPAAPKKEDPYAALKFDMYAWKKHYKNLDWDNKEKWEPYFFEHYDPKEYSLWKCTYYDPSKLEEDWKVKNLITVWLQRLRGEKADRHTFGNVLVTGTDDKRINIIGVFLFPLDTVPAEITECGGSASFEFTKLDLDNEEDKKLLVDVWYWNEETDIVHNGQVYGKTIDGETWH
Nature of the series: intrinsic protein fluorescence quenching. It counts as binding.

Substrate in series [3]: NC(=O)C1=CN([C@@H]2O[C@H](COP(=O)(O)OP(=O)(O)OC[C@H]3O[C@@H](n4cnc5c(N)ncnc54)[C@H](OP(=O)(O)O)[C@@H]3O)[C@@H](O)[C@H]2O)C=CC1
Nature of the series: purified protein. To be noted: FAD NADPH-binding domain.

Substrate in series [4]: O=C(O)c1cc(SSc2ccc([N+](=O)[O-])c(C(=O)O)c2)ccc1[N+](=O)[O-]
Nature of the series: purified protein. To be noted: FAD; NADPH site partially overlapping that of NBDHEX.

We go through two molecules from PMC5377010 (International Journal for Parasitology: Drugs and Drug …, 2017).

On to `O=[N+]([O-])c1ccc(SCCCCCCO)c2nonc12` [NBDHEX, 6-(7-nitro-2,1,3-benzoxadiazol-4-ylthio)hexanol], for which the Kd in series [1] was 140 ± 50 nM; in series [2], under 400 nM.

B1: Thioredoxin Reductase (gTrxR) (Giardia lamblia ATCC 50803) (protein)
chain: MSTQRHVRIGIIGGGPAGLTAGIYASRANLKTCVFVGIEHTSQMFTTTDVENFPSHTAIKGPALMEAIQNQAEHCGAELLYEDVHSIDVSSRPFKIVHGYENETTLADALIIATGATARRLDCKGEKEYWQKGVSACAVCDSAMATGKEVVVVGGGDVACEEATYLTKIATKVYMVLRRDKFRASAAMVKKVMNEKLIEIIYDSAIDEIKGDGKCVTSVSIKNLKDGKTRTLNAGALYWAVGHDPQTSFLKKGQLEQDEAGYILLKDHPTQRTSVDGVFAAGDCCDHLYRQAVVAAGSGSKAALDAERWLAMQE
As to B1, the Km was determined as 2.6 ± 0.6 µM in “purified protein [3]” and 1500 ± 100 µM in “purified protein [4]”.

Broadly, the Kd is a measure of binding affinity in units of concentration. Usually Km stands for the concentration of substrate that gives half-maximal velocity.
